# Results reported in ChEMBL document CHEMBL1201862, “PubChem BioAssay data set” (2004).
# The source made the active and inactive calls.
# What was measured:
# [1] = off-target signal loss in HeLa-CEM21 co-culture – HeLa F-luc CTL cells, cherry-picked, counter-screen for HIV-1 Env fusion inhibitor project, dose response (AID 652040); format: functional, cell-based;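 further: potency for signal decrease marking cytotoxic or nonspecific inhibition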
# [2] = inhibitors of HIV Env-driven cell fusion, dose response, cherry-pick (AID 652057); format: functional, cell-based
# [3] = inhibitors of clade B AD8 Env fusion, dose response, cell-based, cherry-pick (AID 652062); format: functional;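 further: luciferase signal from cell-cell fusion driven by HIV-1 clade B AD8 Env; potency is for inhibitors of fusion seen as a drop in luminescence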
# [4] = ZM109 Env clade C HIV-1 fusion inhibitors, dose response, HeLa effector, CEM target cells, luciferase, cherry-pick (AID 652058); format: functional, cell-based
# [5] = biological target: T1, Ubiquitin-conjugating enzyme E2 N (Homo sapiens, UniProt P61088); format: functional;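 further: Dose-response confirmation in a TR-FRET assay detecting UBC13-driven polyubiquitin chain formation, inhibition measured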
# T1 sequence (P61088 whole entry): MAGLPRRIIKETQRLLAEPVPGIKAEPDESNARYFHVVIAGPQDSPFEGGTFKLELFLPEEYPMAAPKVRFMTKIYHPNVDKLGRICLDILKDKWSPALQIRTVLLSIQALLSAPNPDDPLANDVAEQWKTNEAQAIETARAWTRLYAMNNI
# [6] = inhibitors of intracellular T. cruzi replication, confirmation, NIH3T3 host cells, beta-gal luminescence (AID 2044); format: functional, cell-based;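 further: intracellular parasites grown in NIH/3T3 mouse fibroblasts as host cells; luminescent beta-galactosidase reporter signal from transgenic T. cruzi replicating inside host cells; inhibitors lower the luminescence signal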
# [7] = C. albicans growth with fluconazole, confirmation, fluorescence, retest (AID 2467); format: functional, cell-based
# [8] = NIH-3T3 fibroblast cytotoxicity, dose response, cytotoxicity control, cell-based, fluorescence, Alamar Blue, secondary assay (AID 2327); format: functional;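 further: NIH-3T3 mouse fibroblasts cultured with fluconazole at 8 µg/mL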
# [9] = cytotoxicity toward NIH3T3 fibroblasts, dose response, counter-screen, cell-based, ATP luminescence, mouse fibroblasts (AID 2010); format: functional;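 further: cells exposed to compound for about 90 hours before reading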
# [10] = biological target: T2, Replicative DNA helicase DnaB (Mycobacterium tuberculosis, UniProt P9WMR3); assay: DnaB intein splicing inhibitors, dose response, biochemical, cell-free fluorescence (AID 449749); format: functional
# T2 sequence (P9WMR3 whole entry): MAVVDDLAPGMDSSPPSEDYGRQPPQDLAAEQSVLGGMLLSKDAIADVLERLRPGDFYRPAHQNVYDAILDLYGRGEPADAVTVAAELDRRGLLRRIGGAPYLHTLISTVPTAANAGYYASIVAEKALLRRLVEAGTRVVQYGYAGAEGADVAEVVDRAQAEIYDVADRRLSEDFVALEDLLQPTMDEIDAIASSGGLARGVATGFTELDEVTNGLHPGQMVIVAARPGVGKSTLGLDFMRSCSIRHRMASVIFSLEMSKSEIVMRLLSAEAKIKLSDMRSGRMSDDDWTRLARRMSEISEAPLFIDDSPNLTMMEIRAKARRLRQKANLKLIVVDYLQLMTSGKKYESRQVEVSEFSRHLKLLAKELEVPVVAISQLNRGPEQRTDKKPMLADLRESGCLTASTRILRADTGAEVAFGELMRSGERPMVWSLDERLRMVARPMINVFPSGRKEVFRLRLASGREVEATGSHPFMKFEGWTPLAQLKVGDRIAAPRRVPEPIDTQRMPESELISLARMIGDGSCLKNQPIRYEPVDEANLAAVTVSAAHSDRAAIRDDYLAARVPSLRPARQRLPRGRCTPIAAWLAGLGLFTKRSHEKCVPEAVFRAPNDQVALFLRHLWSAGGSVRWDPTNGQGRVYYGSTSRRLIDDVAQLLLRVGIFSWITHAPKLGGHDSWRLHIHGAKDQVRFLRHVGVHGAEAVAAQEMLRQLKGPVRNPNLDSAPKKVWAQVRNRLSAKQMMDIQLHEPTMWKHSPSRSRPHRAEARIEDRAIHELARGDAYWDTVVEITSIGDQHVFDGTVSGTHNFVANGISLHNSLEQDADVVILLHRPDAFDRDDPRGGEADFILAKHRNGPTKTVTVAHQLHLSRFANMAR
# Protein RecA = biological target: T3, Protein RecA (Mycobacterium tuberculosis, UniProt P9WHJ3); assay: Fluorescence Cell-Free Homogeneous Dose Retest to Identify Inhibitors of RecA-Intein Splicing Activity. [Related pubchem assays (depositor defined):AID2097, AID2223, AID489010, AID492950]; format: functional
# T3 sequence (P9WHJ3 whole entry): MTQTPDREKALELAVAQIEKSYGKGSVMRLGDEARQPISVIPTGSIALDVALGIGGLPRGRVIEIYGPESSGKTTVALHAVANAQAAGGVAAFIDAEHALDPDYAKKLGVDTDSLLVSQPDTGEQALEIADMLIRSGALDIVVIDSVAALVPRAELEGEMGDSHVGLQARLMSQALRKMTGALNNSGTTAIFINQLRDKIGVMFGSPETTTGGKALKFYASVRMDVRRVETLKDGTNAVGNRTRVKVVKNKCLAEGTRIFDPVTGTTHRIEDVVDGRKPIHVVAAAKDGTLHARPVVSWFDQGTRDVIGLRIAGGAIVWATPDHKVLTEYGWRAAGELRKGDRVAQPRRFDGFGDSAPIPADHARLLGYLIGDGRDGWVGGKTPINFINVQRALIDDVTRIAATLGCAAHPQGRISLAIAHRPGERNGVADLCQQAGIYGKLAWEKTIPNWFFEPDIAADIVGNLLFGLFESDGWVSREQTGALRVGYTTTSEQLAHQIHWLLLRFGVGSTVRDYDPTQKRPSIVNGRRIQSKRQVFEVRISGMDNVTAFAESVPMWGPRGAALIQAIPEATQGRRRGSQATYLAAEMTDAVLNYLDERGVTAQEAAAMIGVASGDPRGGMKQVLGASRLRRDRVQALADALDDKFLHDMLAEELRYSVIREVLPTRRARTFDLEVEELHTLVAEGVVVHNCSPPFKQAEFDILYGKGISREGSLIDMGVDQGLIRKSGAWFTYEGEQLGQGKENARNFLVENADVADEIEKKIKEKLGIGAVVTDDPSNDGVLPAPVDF
# Genome polyprotein = Genome polyprotein (dengue virus type 2, UniProt P29990); assay: Dengue-2 NS5 methyltransferase inhibitors, primary screen, biochemical, confirmation dose response (AID 588689); format: functional
# Fatty acid synthase [11] = biological target: T4, Fatty acid synthase (Homo sapiens, UniProt P49327); assay: FAS thioesterase domain inhibitors, dose response, biochemical, kinetic fluorescence intensity (AID 624326); format: functional;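 further: rate of fluorescence rise from hydrolysis of a fluorogenic O-methyl fluorescein ester substrate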
# Fatty acid synthase [12] = biological target: T4, Fatty acid synthase; assay: FAS thioesterase domain inhibitors, dose response, biochemical, endpoint fluorescence intensity, uHTS hits (AID 624327); format: functional;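 further: fluorescence from hydrolysis of an O-methyl fluorescein acyl ester substrate by the enzyme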
# cells [13] = format: functional, cell-based
# cells [14] = format: functional, cell-based; remark: listed apart in the source
# [15] = inhibitors of SNCA 5'UTR-driven reporter translation, confirmation, H4 neuroglioma cells, luminescence (AID 1988); format: functional, cell-based
# [16] = Luminescence Cell-Based Dose Response HTS to Identify Inhibitors of 5'UTR Stem-Loop Driven Prion Protein mRNA Translation in H4 Neuroglioblastoma Cells. [Related pubchem assays: 1827 (Project Summary), 1813 (Primary HTS)]; format: functional
# [17] = inhibitors of firefly luciferase expression or activity, dose response, H4 neuroglioma cells, luminescence (AID 1990); format: functional, cell-based
# [18] = biological target: Induced myeloid leukemia cell differentiation protein Mcl-1 (Homo sapiens, UniProt Q07820); format: functional
# [19] = Luminescence Cell-Based Dose Confirmation HTS to Identify Activators of 5'UTR Stem-Loop Driven Alpha-Synuclein mRNA Translation in H4 Neuroglioblastoma Cells. [Related pubchem assays: 1829 (Project Summary), 1814 (Primary HTS)]; format: functional
# H4 = assay: Luminescence Cell-Based Dose Response HTS to Identify Activators of 5'UTR Stem-Loop Driven Prion Protein mRNA Translation in H4 Neuroglioblastoma Cells. [Related pubchem assays: 1829 (Project Summary), 1814 (Primary HTS)]; format: functional; conditions: Homo sapiens
# [20] = Luminescence Cell-Based Dose Response HTS to Identify Activators of Luciferase Translation or Activity in H4 […] Cells. [Related pubchem assays: 1829 (Project Summary), 1814 (Primary HTS)]; format: functional
# [21] = Shn3 3'UTR reporter inhibitors, dose response, cell-based, Clone20 osteoblasts, firefly luciferase, cherry-picked (AID 624132); format: functional;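 further: firefly luciferase luminescence from reporter carrying the Shn3 3'UTR in osteoblasts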
# [22] = Luminescence Cell-Based Dose Retest to Confirm Inhibitors of Cancer Stem Cells. [Related pubchem assays (depositor defined):AID2717, AID2721]; format: functional; conditions: Homo sapiens
smiles,measurement,setting,value
CCc1cccc(NC(=O)C2CCN(S(=O)(=O)c3ccc4c(c3)CC(C)N4C(C)=O)CC2)c1 (configuration not stated),AC50,[1],48.5 µM (active)
same,AC50,[2],30.3 µM (active)
same,AC50,[3],10.6 µM (active)
same,AC50,[4],6.68 µM (active)
CC[C@H](C)Cc1cn([C@@H](CCCN=C(NC(=O)OC(C)(C)C)NC(=O)OC(C)(C)C)C(=O)NCCCCCCCCCCC(=O)N2CCN(C(=O)OC(C)(C)C)CC2)nn1,IC50,[5],> 20 µM (inactive)
same,EC50,[6],1.04 µM (active)
same,EC50,[7],> 38 µM (not active)
same,EC50,[8],83.3 µM (inconclusive)
same,EC50,[9],> 30 µM (not active)
Cc1ccccc1N1C(=O)C(Cl)=C(N2CCOCC2)C1=O,AC50,[10],13 µM (active)
same,EC50,Protein RecA,4.98 µM (active)
same,IC50,Genome polyprotein,43.7 µM (active)
COc1ccc(C(CC(=O)Nc2cc([N+](=O)[O-])ccc2OC)c2ccccc2)cc1 (configuration not stated),IC50,Fatty acid synthase [11],12.5 µM (active)
same,IC50,Fatty acid synthase [12],12.9 µM (active)
O=C(Nc1cc(S(=O)(=O)N2CCOCC2)ccc1O)c1ccc2c(c1)S(=O)(=O)c1ccccc1C2=O,IC50,Genome polyprotein,49.6 µM (active)
Cc1ccc(S(=O)(=O)N(C)C)cc1NC(=O)COc1ccccc1C(=O)Nc1ccccc1,AC50,[1],3.87 µM (active)
same,AC50,[2],1.78 µM (active)
same,AC50,[3],8.41 µM (active)
same,AC50,[4],2.56 µM (active)
O=C1C(Cl)=C(N2CCCC2)C(=O)N1c1ccccc1F,IC50,Genome polyprotein,84.4 µM (active)
COc1ccc(C(C2C(=O)CC(C)(C)CC2=O)C2C(=O)CC(C)(C)CC2=O)cc1,IC50,Genome polyprotein,30.4 µM (active)
CCOP(=O)(C#CC(C)(C)C)C1(O)CCCCC1 (configuration not stated),EC50,cells [13],> 350 µM (not active)
same,EC50,cells [14],> 350 µM (not active)
COc1ccc(/C=C2/C(=O)NC(=O)N(c3ccc(C)c(C)c3)C2=O)cc1CN1C(=O)c2ccccc2C1=O,IC50,Genome polyprotein,99.5 µM (active)
Cc1ccc(C(=O)NCCSC(C)(C)C)cc1[N+](=O)[O-],IC50,Fatty acid synthase [11],8.25 µM (active)
same,IC50,Fatty acid synthase [12],11.7 µM (active)
CCn1c(SCC(=O)Nc2nncs2)nnc1-c1ccco1,EC50,cells [13],> 350 µM (not active)
same,EC50,cells [14],> 350 µM (not active)
CC[C@@]12C(=O)N(c3ccc(OC)cc3)C(=O)N1[C@H](c1ccc(Cl)cc1)[C@@H]1C(=O)N(C3CCCCC3)C(=O)[C@@H]12,AC50,[1],0.407 µM (active)
same,AC50,[2],< 0.26 µM (active)
same,AC50,[3],0.607 µM (active)
same,AC50,[4],0.379 µM (active)
CC(=O)Nc1sc(-c2ccccc2)nc1-c1ccccc1,EC50,cells [13],> 350 µM (not active)
same,EC50,cells [14],> 350 µM (not active)
CCN1C(=O)[C@H]2[C@@H](c3ccc(C)cc3)N3C(=O)N(c4cccc(Br)c4)C(=O)[C@@]3(CC(C)C)[C@H]2C1=O,AC50,[1],0.382 µM (active)
same,AC50,[2],0.26 µM (active)
same,AC50,[3],0.672 µM (active)
same,AC50,[4],0.374 µM (active)
CCOC(=O)c1cc(-c2ccc(OC)cc2F)nc2c1c(C)nn2CCC#N,IC50,[5],> 20 µM (inactive)
same,EC50,[15],23.3 µM (active)
same,EC50,[16],20.2 µM (active)
same,EC50,[17],17.7 µM (active)
C/C=C\C=C/C(=O)Nc1cccc(C2=NOC3(C2)C[C@@H](C(N)=O)N(C(=O)c2ccccc2)C3)c1 (some centres not stated),IC50,[18],6.9 µM (not active)
CC(C)(C)C1=CC=C(C(C)(C)C)C(=O)C1=O,IC50,[18],3.86 µM (active)
same,EC50,[19],> 120 µM (not active)
same,EC50,H4,> 120 µM (not active)
same,EC50,[20],> 120 µM (not active)
COc1ccc(S(=O)(=O)Nc2ccc3c(c2)CC(=O)N([C@H](C)CO)C[C@H](C)[C@H](CN(C)S(=O)(=O)c2ccc(F)cc2)O3)cc1,AC50,[2],0.384 µM (active)
same,AC50,[3],10.6 µM (active)
O=C(C1CCCCC1)N1CCCC(c2nc(O)c3nnn(Cc4ccccc4)c3n2)C1 (configuration not stated),AC50,[1],> 70 µM (inactive)
same,AC50,[2],11.1 µM (active)
same,AC50,[4],18.5 µM (active)
Sc1nnc(COc2cccc3ccccc23)n1Cc1ccccc1,AC50,[21],48 µM (active)
O=C(O)CCc1ccc(-c2ccc(Br)cc2)n1-c1ccc(O)cc1,IC50,Genome polyprotein,> 100 µM (active)
CC(C)(C)C1CCC(CN2C(Nc3ccccc3)=NC[C@@H]2Cc2ccccc2)CC1 (some centres not stated),IC50,[5],> 20 µM (inactive)
same,AC50,[22],6.47 µM (active)
CCNC(=O)c1ccccc1NC(=O)c1cccc(S(=O)(=O)N2CCC(C)CC2)c1,IC50,[5],> 20 µM (inactive)
O=C(/C=C/c1cccc([N+](=O)[O-])c1)NCCSCc1ccco1,IC50,Fatty acid synthase [11],10.1 µM (active)
same,IC50,Fatty acid synthase [12],6.86 µM (active)
CNc1sc(C(=O)c2ccc(F)cc2)c(N)c1-c1nc2ccccc2s1,IC50,[18],2.45 µM (active)
CC(=O)c1ccc(OCCCC(=O)NNC(=O)c2ccccn2)cc1,IC50,[5],> 20 µM (inactive)
Cc1ccc(-n2nc3c(c2NC(=O)c2ccco2)C[S+]([O-])C3)cc1 (configuration not stated),AC50,[1],7.72 µM (active)
Cc1cccc(NC(=O)CSc2nc3c(oc4ccccc43)c(=O)n2-c2ccccc2)c1,IC50,Fatty acid synthase [11],51.3 µM (inactive)
same,IC50,Fatty acid synthase [12],25.6 µM (inactive)
COC(=O)[C@@]12CCCN1[C@H](c1ccc(-c3ccc(F)cc3)c(OC)c1)[C@H]1C(=O)N(C)C(=O)[C@H]12,AC50,[2],2.93 µM (active)
same,AC50,[3],25.5 µM (active)
same,AC50,[4],1.38 µM (active)
